Values of other authors as cited in patent US12349704B2, “High quality cultured meat, compositions and methods for producing same” (ALEPH FARMS LTD., priority 2018, dated 2025).

Key:
[1] = dietary or formulated lycopene
[2] = not given; remark: listed apart in the source

CC1=C(/C=C/C(C)=C/C=C/C(C)=C/C=C/C=C(C)/C=C/C=C(C)/C=C/C2=C(C)CCCC2(C)C)C(C)(C)CCC1 [beta-carotene]
daily intake that may lead to hypercarotenemia (yellowish coloration of the skin, harmless and reversible): > 30 mg

CC(C)=CCC/C(C)=C/C=C/C(C)=C/C=C/C(C)=C/C=C/C=C(C)/C=C/C=C(C)/C=C/C=C(\C)CCC=C(C)C [lycopene]
intake levels at which no adverse effects were observed [1]: up to 3 g/(kg*d)

NCC(=O)[O-].NCC(=O)[O-].[Fe+2] [Ferrous bisglycinate]
tolerability of dietary iron supplementation ([2]; approximately 15 to 120 mg iron/day, iron-deficient young children, adult males, pregnant and non-pregnant females): well tolerated | adverse effects in field trials of iron fortification of foods ([2]; between 2 and 23 mg/day of supplemental dietary iron): without any reports of adverse effects
